Data taken from ChEMBL document CHEMBL1201862, “PubChem BioAssay data set” (2004).
Active and inactive are the calls of the source. Unless noted, no cut-off for these calls is given here.

What was measured:
[1] = biological target: Neuropeptides B/W receptor type 1 (Homo sapiens, UniProt P48145); assay: GPR7 antagonist potency, late-stage follow-up, cell-based, fluorescence, dose response, set 6 (AID 588583); assay type: functional
[2] = biological target: Melanin-concentrating hormone receptor 1 (Homo sapiens, UniProt Q99705); assay: Late-stage fluorescence-based counterscreen for antagonists of the G-protein coupled receptor 7 (GPR7): cell-based dose response assay to identify antagonists of the melanin-concentrating hormone receptor 1 (MCHR1) Set 6.; assay type: functional
[3] = Luminescence Cell-Based Dose Retest to Confirm Inhibitors of Cancer Stem Cells. [Related pubchem assays (depositor defined):AID2717, AID2721]; assay type: functional; conditions: Homo sapiens
[4] = system: CHO; assay: cytotoxicity in TLR9-MyD88 CHO cells, dose response, cytotoxicity control for TLR9-MyD88 binding inhibitor project, cell-based, luminescence (AID 588339); assay type: functional, hamster; conditions: Cricetulus griseus;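 note: CHO cells stably coexpressing TLR9 and MyD88 fusions from primary screen; compound exposure lasted 48 hours before viability readout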
[5] = biological target: Beta Lactamase (Pseudomonas aeruginosa, UniProt Q932Y6); assay: beta-lactamase reporter inhibitor potency, dose response, artefact control for TLR9-MyD88 binding inhibitor project, BLA reporter cells, FRET fluorescence (AID 588341); assay type: cell-based;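 note: cell based assay in CHO-K1 cells stably expressing beta-lactamase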
[6] = system: HEK293; assay: inhibitors of LMP1-driven NF-kB reporter, dose response, cell-based, HEK293, luciferase, cherry-pick (AID 588343); assay type: functional; conditions: Homo sapiens
[7] = biological target: Latent membrane protein 1 (Human herpesvirus 4 (strain B95-8), UniProt P03230); assay: TES1-eGFP NF-kB reporter inhibition versus Tet-On dsRED, dose response, selectivity assay for LMP1 NF-kB inhibitor project, imaging, HEK293T, dual-color eGFP/dsRED, cherry-picks (AID 588398); assay type: functional, cell-based
[8] = biological target: Sphingosine 1-phosphate receptor 5 (Homo sapiens, UniProt Q9H228); assay: S1P5 receptor agonists, human, late-stage follow-up, counter-screen for S1P4 agonist project, cell-based, fluorescence, set 2 (AID 504867); assay type: functional
[9] = biological target: Sphingosine 1-phosphate receptor 1 (Homo sapiens, UniProt P21453); assay: Late-stage fluorescence-based dose-response cell-based counterscreen assay to identify agonists of the Sphingosine 1-Phosphate Receptor 4 (S1P4): Sphingosine 1-Phosphate Receptor 1 (S1P1) agonist assay Set 2.; assay type: functional
[10] = biological target: Sphingosine 1-phosphate receptor 2 (Homo sapiens, UniProt O95136); assay: S1P2 receptor agonists, human, late-stage follow-up, counter-screen for S1P4 agonist project, cell-based, fluorescence, set 2 (AID 504873); assay type: functional
[11] = biological target: Sphingosine 1-phosphate receptor 3 (Homo sapiens, UniProt Q99500); assay: Late-stage fluorescence-based dose-response cell-based counterscreen assay to identify agonists of the Sphingosine 1-Phosphate Receptor 4 (S1P4): Sphingosine 1-Phosphate Receptor 3 (S1P3) agonist assay Set 2.; assay type: functional
[12] = biological target: Glycogen synthase kinase-3 beta (Homo sapiens, UniProt P49841); assay type: functional;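 note: value comes from a broad kinome profiling panel, with GSK3B as the panel member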
[13] = biological target: Dual specificity tyrosine-phosphorylation-regulated kinase 1B (Homo sapiens, UniProt Q9Y463); assay: Navigating the Kinome. Panel member name: DYRK1B; assay type: functional
[14] = biological target: Cyclin-dependent kinase 9 (Homo sapiens, UniProt P50750); assay type: functional;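 note: value from the CDK9 entry of a kinome-spanning kinase panel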
[15] = biological target: DNA dC->dU-editing enzyme APOBEC-3G (Homo sapiens, UniProt Q9HC16); assay: APOBEC3G deaminase inhibitors, SAR follow-up, biochemical, fluorescence, single-stranded DNA substrate (AID 602136); assay type: functional; conditions: read-out: IC50_Mean
[16] = biological target: DNA dC->dU-editing enzyme APOBEC-3A (Homo sapiens, UniProt P31941); assay: SAR analysis of small molecule inhibitors of APOBEC3A DNA Deaminase via a fluorescence-based single-stranded DNA deaminase assay.; assay type: functional; conditions: read-out: IC50_Mean
[17] = biological target: T1, Multidrug resistance protein CDR2 (Candida albicans (strain SC5314 / ATCC MYA-2876) (Yeast), UniProt P78595); assay: CaCDR2 efflux pump inhibitors in yeast, dose response, S. cerevisiae AD1-8u, singleplex, Cherry Pick2 set (AID 623994); assay type: functional; conditions: read-out: EC50_MICROM
[18] = biological target: T2, Ubiquitin-conjugating enzyme E2 N (Homo sapiens, UniProt P61088); assay type: functional;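 note: Dose-response confirmation in a TR-FRET assay detecting UBC13-driven polyubiquitin chain formation, inhibition measured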
T2 sequence (P61088 whole entry): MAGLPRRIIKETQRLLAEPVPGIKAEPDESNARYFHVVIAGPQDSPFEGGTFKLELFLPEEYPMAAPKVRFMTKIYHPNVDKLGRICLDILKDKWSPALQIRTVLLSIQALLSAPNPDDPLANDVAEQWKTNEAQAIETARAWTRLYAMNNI

[19] = biological target: Multidrug resistance protein CDR1 (Candida albicans, UniProt P43071); assay: CaCdr1 efflux pump inhibitor potency, dose response, singleplex, Cherry Pick2 set (AID 623996); assay type: functional; conditions: read-out: EC50_MICROM
[20] = biological target: T1, Multidrug resistance protein CDR2; assay: CaCDR2 efflux pump inhibitors in yeast, dose response, S. cerevisiae AD1-8u, singleplex, Cherry Pick1 hits (AID 588604); assay type: functional
[21] = biological target: Benomyl/methotrexate resistance protein (Candida albicans, UniProt P28873); assay: CaMdr1 efflux pump inhibitor potency, dose response, singleplex, Cherry Pick2 set (AID 623992); assay type: functional; conditions: read-out: EC50_MICROM

T1 sequence (P78595 whole entry): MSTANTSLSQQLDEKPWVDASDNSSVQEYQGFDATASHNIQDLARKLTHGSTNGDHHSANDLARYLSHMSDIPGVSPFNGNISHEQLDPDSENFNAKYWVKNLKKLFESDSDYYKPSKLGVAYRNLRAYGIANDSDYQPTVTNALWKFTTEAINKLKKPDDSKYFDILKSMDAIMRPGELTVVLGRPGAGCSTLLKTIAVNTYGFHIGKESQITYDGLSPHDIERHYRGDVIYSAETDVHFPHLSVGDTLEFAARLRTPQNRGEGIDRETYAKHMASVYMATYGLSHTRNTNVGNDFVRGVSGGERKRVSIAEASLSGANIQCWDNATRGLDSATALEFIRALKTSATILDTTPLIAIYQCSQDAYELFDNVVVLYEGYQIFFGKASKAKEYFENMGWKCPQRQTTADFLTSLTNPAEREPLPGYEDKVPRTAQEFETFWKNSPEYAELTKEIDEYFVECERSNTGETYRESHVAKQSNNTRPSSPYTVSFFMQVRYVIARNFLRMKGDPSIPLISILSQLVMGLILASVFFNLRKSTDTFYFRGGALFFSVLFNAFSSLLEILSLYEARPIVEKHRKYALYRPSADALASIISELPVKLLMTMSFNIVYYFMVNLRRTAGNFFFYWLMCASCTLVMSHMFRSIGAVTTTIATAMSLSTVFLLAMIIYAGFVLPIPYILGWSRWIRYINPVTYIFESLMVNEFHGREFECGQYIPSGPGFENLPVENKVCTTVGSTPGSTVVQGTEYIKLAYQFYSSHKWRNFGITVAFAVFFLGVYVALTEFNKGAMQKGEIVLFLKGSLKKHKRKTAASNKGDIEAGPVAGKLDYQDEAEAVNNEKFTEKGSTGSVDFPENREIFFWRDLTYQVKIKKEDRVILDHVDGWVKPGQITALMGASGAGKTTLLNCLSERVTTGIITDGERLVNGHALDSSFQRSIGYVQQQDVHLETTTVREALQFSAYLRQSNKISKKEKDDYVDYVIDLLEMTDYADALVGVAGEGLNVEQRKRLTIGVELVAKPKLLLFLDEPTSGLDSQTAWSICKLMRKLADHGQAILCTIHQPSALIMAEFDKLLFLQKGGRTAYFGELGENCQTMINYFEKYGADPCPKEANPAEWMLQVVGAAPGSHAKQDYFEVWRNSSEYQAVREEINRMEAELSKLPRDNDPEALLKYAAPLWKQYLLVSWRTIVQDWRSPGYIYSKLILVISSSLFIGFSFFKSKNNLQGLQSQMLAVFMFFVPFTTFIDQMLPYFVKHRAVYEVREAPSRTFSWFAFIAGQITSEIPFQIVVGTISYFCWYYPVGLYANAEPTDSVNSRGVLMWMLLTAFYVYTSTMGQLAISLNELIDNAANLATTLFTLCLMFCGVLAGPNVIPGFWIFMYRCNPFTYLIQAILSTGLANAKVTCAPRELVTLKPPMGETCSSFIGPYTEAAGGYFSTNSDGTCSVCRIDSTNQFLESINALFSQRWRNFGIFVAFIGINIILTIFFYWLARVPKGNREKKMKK
Sphingosine 1-phosphate receptor 2, sequence (O95136 whole entry): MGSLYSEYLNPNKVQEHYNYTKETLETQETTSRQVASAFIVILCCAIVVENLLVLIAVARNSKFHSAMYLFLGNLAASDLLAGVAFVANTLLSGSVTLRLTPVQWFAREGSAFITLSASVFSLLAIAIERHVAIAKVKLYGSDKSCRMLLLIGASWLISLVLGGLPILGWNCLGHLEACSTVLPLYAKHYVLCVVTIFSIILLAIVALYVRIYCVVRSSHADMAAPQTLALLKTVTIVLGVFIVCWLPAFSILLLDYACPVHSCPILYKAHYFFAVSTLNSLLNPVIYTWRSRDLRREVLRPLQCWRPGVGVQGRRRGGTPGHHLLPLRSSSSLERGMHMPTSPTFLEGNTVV
Melanin-concentrating hormone receptor 1, sequence (Q99705 whole entry): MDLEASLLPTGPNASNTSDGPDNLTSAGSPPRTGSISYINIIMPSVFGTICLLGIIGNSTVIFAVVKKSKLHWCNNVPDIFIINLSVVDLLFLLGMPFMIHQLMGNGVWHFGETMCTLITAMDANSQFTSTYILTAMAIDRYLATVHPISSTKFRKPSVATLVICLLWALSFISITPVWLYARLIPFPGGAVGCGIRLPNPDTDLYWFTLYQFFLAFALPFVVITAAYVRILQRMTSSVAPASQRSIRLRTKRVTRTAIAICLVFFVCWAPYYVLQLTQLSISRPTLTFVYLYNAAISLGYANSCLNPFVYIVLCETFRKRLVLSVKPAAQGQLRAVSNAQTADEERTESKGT
Glycogen synthase kinase-3 beta, sequence (P49841 whole entry): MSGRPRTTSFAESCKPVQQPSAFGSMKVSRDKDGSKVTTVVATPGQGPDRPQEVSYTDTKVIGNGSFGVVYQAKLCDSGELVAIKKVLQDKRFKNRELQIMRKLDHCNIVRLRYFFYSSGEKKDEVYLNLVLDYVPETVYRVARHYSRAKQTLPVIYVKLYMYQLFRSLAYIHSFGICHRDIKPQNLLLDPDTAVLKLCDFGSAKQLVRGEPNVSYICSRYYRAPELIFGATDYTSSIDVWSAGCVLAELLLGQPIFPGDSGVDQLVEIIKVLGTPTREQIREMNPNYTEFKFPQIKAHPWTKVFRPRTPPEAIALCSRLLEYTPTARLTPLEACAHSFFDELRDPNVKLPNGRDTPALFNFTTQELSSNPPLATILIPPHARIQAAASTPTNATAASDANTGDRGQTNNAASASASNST
Multidrug resistance protein CDR1, sequence (P43071 whole entry, looked up): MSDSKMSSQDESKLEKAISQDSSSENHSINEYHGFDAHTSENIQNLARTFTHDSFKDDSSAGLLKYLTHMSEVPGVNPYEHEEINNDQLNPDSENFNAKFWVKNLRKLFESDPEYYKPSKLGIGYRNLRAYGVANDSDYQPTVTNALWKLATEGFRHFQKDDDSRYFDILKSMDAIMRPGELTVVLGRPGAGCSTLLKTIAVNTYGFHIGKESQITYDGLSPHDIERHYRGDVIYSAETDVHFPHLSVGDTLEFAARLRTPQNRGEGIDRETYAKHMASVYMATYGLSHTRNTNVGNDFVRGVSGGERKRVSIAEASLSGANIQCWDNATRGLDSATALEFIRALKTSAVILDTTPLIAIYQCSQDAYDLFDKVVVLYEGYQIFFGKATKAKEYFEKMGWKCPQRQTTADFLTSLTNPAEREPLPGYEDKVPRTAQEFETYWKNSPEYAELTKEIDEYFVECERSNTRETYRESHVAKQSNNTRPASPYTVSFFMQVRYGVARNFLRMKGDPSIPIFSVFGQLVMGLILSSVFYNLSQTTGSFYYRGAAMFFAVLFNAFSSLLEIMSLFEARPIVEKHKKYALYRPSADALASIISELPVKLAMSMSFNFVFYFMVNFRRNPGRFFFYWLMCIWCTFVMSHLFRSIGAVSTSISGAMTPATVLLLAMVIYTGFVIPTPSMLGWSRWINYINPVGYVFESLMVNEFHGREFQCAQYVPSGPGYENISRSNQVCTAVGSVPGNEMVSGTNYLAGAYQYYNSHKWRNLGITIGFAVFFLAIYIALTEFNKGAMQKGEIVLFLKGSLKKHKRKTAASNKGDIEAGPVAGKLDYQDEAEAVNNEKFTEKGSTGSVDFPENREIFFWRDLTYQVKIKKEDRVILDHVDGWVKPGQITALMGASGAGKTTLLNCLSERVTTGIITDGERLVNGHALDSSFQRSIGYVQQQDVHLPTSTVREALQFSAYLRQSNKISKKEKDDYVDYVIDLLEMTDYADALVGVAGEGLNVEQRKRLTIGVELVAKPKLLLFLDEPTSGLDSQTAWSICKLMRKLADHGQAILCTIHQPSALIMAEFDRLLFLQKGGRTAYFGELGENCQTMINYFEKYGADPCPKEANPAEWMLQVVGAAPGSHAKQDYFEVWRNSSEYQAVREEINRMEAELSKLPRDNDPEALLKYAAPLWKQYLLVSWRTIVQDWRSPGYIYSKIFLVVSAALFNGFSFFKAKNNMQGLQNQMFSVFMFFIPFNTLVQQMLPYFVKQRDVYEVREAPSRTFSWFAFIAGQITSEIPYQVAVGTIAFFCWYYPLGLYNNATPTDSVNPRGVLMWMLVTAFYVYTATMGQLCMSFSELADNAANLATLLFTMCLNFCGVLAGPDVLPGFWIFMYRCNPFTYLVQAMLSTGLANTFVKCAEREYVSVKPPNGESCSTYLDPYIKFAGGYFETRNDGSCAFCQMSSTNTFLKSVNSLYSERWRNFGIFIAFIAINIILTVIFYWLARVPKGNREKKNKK
Sphingosine 1-phosphate receptor 5, sequence (Q9H228 whole entry): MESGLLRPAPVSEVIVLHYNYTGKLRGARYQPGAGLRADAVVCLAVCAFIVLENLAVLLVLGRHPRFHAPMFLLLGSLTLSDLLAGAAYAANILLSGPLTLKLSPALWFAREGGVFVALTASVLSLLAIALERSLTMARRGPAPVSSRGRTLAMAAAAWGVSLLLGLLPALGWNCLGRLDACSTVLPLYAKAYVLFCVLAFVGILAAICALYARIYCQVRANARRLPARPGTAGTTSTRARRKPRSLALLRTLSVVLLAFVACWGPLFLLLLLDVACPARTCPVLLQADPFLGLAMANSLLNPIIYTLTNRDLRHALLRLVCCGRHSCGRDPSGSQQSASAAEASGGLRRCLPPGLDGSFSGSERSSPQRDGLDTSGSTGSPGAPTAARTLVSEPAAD
Cyclin-dependent kinase 9, sequence (P50750 whole entry): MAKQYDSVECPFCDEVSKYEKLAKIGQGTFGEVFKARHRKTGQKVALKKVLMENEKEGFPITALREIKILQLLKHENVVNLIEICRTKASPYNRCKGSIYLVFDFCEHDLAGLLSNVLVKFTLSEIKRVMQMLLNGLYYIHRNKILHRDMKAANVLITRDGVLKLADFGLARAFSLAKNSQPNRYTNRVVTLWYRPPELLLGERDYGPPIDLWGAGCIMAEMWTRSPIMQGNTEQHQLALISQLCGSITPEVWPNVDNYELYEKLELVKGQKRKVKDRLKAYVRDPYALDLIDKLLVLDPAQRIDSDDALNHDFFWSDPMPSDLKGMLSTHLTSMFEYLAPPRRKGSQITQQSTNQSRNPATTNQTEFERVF

N#CC(c1ccccc1)c1c(Cl)cnn(Cc2ccc3ccccc3c2)c1=O (configuration not stated)
IC50 [1]: 3.04 µM (active) | IC50 [2]: 3.04 µM (active)

c1cc(SC2CCCCC2)cc(-c2nc3cnccn3c2NC2CCCCC2)c1
AC50 [3]: 1.58 µM (active) | IC50 [4]: 23.4 µM (inactive) | IC50 [5]: 4.83 µM (active)

O=C(OC1CCN(CCCl)CC1)C(c1ccccc1)c1ccccc1
AC50 [6]: 24.3 µM (active) | AC50 [7]: 24.2 µM (active)

CC/N=C1\S/C(=C\c2cc(C)n(-c3ccccc3F)c2C)C(=O)N1CC
EC50 [8]: > 25 µM (inactive) | EC50 [9]: > 25 µM (inactive) | EC50 [10]: > 25 µM (inactive) | EC50 [11]: > 25 µM (inactive)

CC1c2cccn2CCN1Cc1nc2scc(-c3ccco3)c2c(=O)[nH]1 (configuration not stated)
Ki [12]: 3.16 µM (active) | Ki [13]: 2.51 µM (active) | Ki [14]: 1.58 µM (active)

CCOc1nc(Nc2ccccc2)nc(Nc2ccc(-c3nc4ccccc4o3)cc2)n1
IC50 [15]: > 99 µM (inactive) | IC50 [16]: > 99 µM (inactive)

COc1ccc2sc(-c3ccccc3OC)c(-c3ccc(OCCN4CCCC4)cc3)c2c1
EC50 [17]: 0.958 µM (active) | IC50 [18]: > 20 µM (inactive) | AC50 [3]: 5.62 µM (active) | EC50 [19]: 23.6 µM (active) | EC50 [20]: 0.87 µM (active) | EC50 [21]: 50.2 µM (active)
